Source: a compilation of properties of binary mixtures (doi:10.3390/app10238342)

Test: xn = mol fraction of the nth substance listed
Conditions: 96.7 kPa

CS(C)=O + CC(=O)[O-].CCCCCCn1cc[n+](C)c1
x2 = 0
Conditions	viscosity [mPa·s]
303.15 K	1.81
308.15 K	1.66
313.15 K	1.52
318.15 K	1.4
323.15 K	1.3
328.15 K	1.2
338.15 K	1.04

CC(=O)[O-].CCCCCCn1cc[n+](C)c1 + CS(C)=O
viscosity [mPa·s]
Conditions	x1 = 0.057	x1 = 0.187	x1 = 0.257	x1 = 0.341	x1 = 0.446	x1 = 0.58	x1 = 0.757	x1 = 0.868	x1 = 1
303.15 K	2.7	4.6	9.2	18.7	41	74	250	420	800
308.15 K	2.46	–	–	15.8	32	60	182	290	530
313.15 K	–	3.7	6.9	13	27	–	133	212	370
318.15 K	2	3.2	5.9	10.8	–	41	–	156	260
323.15 K	1.86	2.9	5.2	9.3	17.9	35	78	115	190
328.15 K	1.72	2.6	4.7	8.1	14.7	29	60	88	145
333.15 K	1.58	2.31	4.2	–	–	25	47	68	110
338.15 K	1.47	–	3.6	6.4	10.9	21.3	–	55	88
